# Test results taken from patent US20140314857A1, “FORMULATIONS FOR ENHANCED BIOAVAILABILITY OF ZANAMIVIR” (priority 2012, published 2014).
# Where “and” joins values, the source holds several entries; their conditions need not be identical. Equal values may be shown once.
# Experiment: Intravenous and intraduodenal (bolus) bioavailability of zanamivir from Capmul MCM L8 25, 50, 75 µL (Example 7)
# Conditions: for Co: extrapolated to t = 0
# Description: Male Sprague-Dawley rats (Hilltop Labs), 3 animals per treatment group, 250-350 grams in weight, were fitted with a jugular vein cannula (JVC). Animals intended for intraduodenal dosing were also fitted with one or more intraduodenal cannula (IDC) and those intended for intravenous dosing were fitted with a second JVC. Food was withheld from the animals for a minimum of twelve hours prior to test article administration and was returned approximately four hours post-dose. Water was supplied ad libitum.
# Intraduodenal doses composed of 1.5 mg of zanamivir and varying amounts of an enhancer (glycerol or Capmul MCM L8) were injected directly into the duodenum via the IDC. Intravenous dosing was conducted by the injection of 1.5 mg of zanamivir in 200 μL of PBS through a JVC. For some experiments, the absorption enhancer was administered intraduodenally 2 hr prior to administering 1.5 mg of zanamivir in PBS through a second IDC. Each intraduodenal dose was followed with the introduction of a small air bubble (˜10 μL) in the cannula followed by a flush of 125 μL of PBS to ensure the dose was given in full. The volume of PBS used for cannula flush was consistent across the treatment groups. The cannula was tied to prevent the PBS remaining in the cannula from entering the duodenum.
# Blood samples collected via the JVC, approximately 400 μL each, were obtained at 2 min, 5 min, 15 min, 30 min, 60 min, 90 min, and 120 min, with sodium heparin used as an anti-coagulant. Each sample was placed into a chilled tube containing the anticoagulant and kept on ice until centrifugation at 4° C., 3,000×g, for 5 min. The plasma supernatants were stored at −70° C. until LC-MS analysis.
# Dosing solution samples were assayed by LC-MS/MS using electrospray ionization. The chromatographic system consisted of Perkin Elmer series 200 micropumps and autosampler equipped with a Waters Atlantic® HILIC Silica 3 μM, 2.1×50 mm column. The mass spectrometer was a PE Sciex API 4000 with electrospray interface in multiple reaction monitoring mode. […] Stock solutions (1 mg/mL zanamivir) were prepared in water. Standards (eight concentrations) were prepared in the appropriate matched matrix (HBSSg or Sprague-Dawley rat plasma containing sodium heparin) and diluted 50-fold with methanol. Experimental samples were treated identically.
# Standards and samples were prepared in Sprague Dawley rat plasma containing sodium heparin as an anticoagulant. An eight-point calibration curve was prepared at concentrations of 1000, 750, 500, 250, 100, 50, 25, and 10 ng/mL by serial dilution. Standard samples were treated identically to the study samples.
# Plasma samples were extracted by protein precipitation in methanol.
# In this example, the bioavailability of Zanamivir was evaluated after intraduodenal doses in male Sprague-Dawley rats. The test compound was dosed at 1.5 mg/animal through intravenous and intraduodenal routes from normal saline and Capmul MCM L8 formulations, respectively. Plasma levels were determined by LC-MS/MS analysis. Pharmacokinetic parameters were estimated by a non-compartmental model using WinNonlin v5.2.1 software.
# Each ID dose in groups 2-4 will be followed with a small air bubble ([…]) and a flush of […] of PBS to insure the dose is given in full. The volume of PBS used for cannulae flush will be maintained consistent across the animals and the treatment groups. The cannula will then be tied to help prevent the PBS remaining in the cannula from entering the duodenum.
# [1] = IV 1.5 mg/animal, Normal Saline, Ex.7, individual rats
compound,measurement,setting,value
"CC(=O)NC1C(NC(=N)N)C=C(C(=O)O)OC1C(O)C(O)CO (stereo not drawn) [Zanamivir, 5-acetamido-4-guanidino-6-(1,2,3-trihydroxypropyl)-5,6-dihydro-4H-pyran-2-carboxylic acid]",Plasma concentration,"ID bolus 1.5 mg/animal, 25 µL Capmul MCM L8, 0.25 hr, individual rats",1500 ng/mL and 1380 ng/mL and 655 ng/mL
same,Plasma concentration,"ID bolus 1.5 mg/animal, 25 µL Capmul MCM L8, 0.5 hr, individual rats",950 ng/mL and 647 ng/mL
same,Plasma concentration,"ID bolus 1.5 mg/animal, 25 µL Capmul MCM L8, 0.83 hr, individual rats",1960 ng/mL and 2090 ng/mL and 913 ng/mL
same,Plasma concentration,"ID bolus 1.5 mg/animal, 25 µL Capmul MCM L8, 1.0 hr, individual rats",378 ng/mL and 259 ng/mL
same,Plasma concentration,"ID bolus 1.5 mg/animal, 25 µL Capmul MCM L8, 1.5 hr, individual rats",143 ng/mL and 119 ng/mL
same,Plasma concentration,"ID bolus 1.5 mg/animal, 25 µL Capmul MCM L8, 2.0 hr, individual rats",78.2 ng/mL and 66.8 ng/mL
same,t1/2,"ID bolus 1.5 mg/animal, 25 µL Capmul MCM L8, individual rats",26.4 min and 30.7 min
same,Plasma concentration,"ID bolus 1.5 mg/animal, 50 µL Capmul MCM L8, Ex.7, 0.25 hr, individual rats",1400 ng/mL and 1270 ng/mL
same,Plasma concentration,"ID bolus 1.5 mg/animal, 50 µL Capmul MCM L8, Ex.7, 0.5 hr, individual rats",985 ng/mL and 774 ng/mL
same,Plasma concentration,"ID bolus 1.5 mg/animal, 50 µL Capmul MCM L8, Ex.7, 0.83 hr, individual rats",2130 ng/mL and 1600 ng/mL
same,Plasma concentration,"ID bolus 1.5 mg/animal, 50 µL Capmul MCM L8, Ex.7, 1.0 hr, individual rats",708 ng/mL and 551 ng/mL
same,Plasma concentration,"ID bolus 1.5 mg/animal, 50 µL Capmul MCM L8, Ex.7, 1.5 hr, individual rats",299 ng/mL and 217 ng/mL
same,Plasma concentration,"ID bolus 1.5 mg/animal, 50 µL Capmul MCM L8, Ex.7, 2.0 hr, individual rats",158 ng/mL and 99.5 ng/mL
same,t1/2,"ID bolus 1.5 mg/animal, 50 µL Capmul MCM L8, Ex.7, individual rats",27.7 min and 24.3 min
same,Plasma concentration,"IV 1.5 mg/animal, Normal Saline, Ex.7, 0.033 hr, individual rats",22900 ng/mL and 20400 ng/mL
same,Plasma concentration,"IV 1.5 mg/animal, Normal Saline, Ex.7, 0.083 hr, individual rats",12300 ng/mL and 13500 ng/mL
same,Plasma concentration,"IV 1.5 mg/animal, Normal Saline, Ex.7, 0.25 hr, individual rats",9620 ng/mL and 11600 ng/mL
same,Plasma concentration,"IV 1.5 mg/animal, Normal Saline, Ex.7, 0.5 hr, individual rats",5500 ng/mL and 6450 ng/mL
same,Plasma concentration,"IV 1.5 mg/animal, Normal Saline, Ex.7, 1.0 hr, individual rats",1520 ng/mL and 2190 ng/mL
same,Plasma concentration,"IV 1.5 mg/animal, Normal Saline, Ex.7, 1.5 hr, individual rats",661 ng/mL and 862 ng/mL
same,Plasma concentration,"IV 1.5 mg/animal, Normal Saline, Ex.7, 2.0 hr, individual rats",220 ng/mL and 432 ng/mL
same,Co,[1],32061 ng/mL and 34657 ng/mL and 26863 ng/mL
same,Co,"IV 1.5 mg/animal, Normal Saline, Ex.7, mean",31194 ± 3968 ng/mL and 31194 ng/mL
same,CL,[1],10.7 mL/min/kg and 9.52 mL/min/kg
same,T1/2,[1],21.5 min and 25.6 min
same,Vss,[1],0.260 L/kg and 0.278 L/kg
same,half-life,"male, Sprague-Dawley, rat, in vivo, 1.5 mg, average half-life, ID bolus 1.5 mg/animal, 75 µL Capmul MCM L8",24.9 ± 3.78 min
same,bioavailability,"male, Sprague-Dawley, rat, in vivo, 1.5 mg, overall percent bioavailability",25%
same,half-life,"male, Sprague-Dawley, rat, in vivo, 1.5 mg, t1/2, ID bolus 1.5 mg/animal, 25 µL Capmul MCM L8, individual rats",24.5 min
same,half-life,"male, Sprague-Dawley, rat, in vivo, 1.5 mg, t1/2, ID bolus 1.5 mg/animal, 25 µL Capmul MCM L8, mean",27.2 ± 3.18 min
same,half-life,"male, Sprague-Dawley, rat, in vivo, 1.5 mg, t1/2, ID bolus 1.5 mg/animal, 50 µL Capmul MCM L8, Ex.7, individual rats",21.8 min
same,half-life,"male, Sprague-Dawley, rat, in vivo, 1.5 mg, t1/2, ID bolus 1.5 mg/animal, 50 µL Capmul MCM L8, Ex.7, mean",24.6 min
same,half-life,"male, Sprague-Dawley, rat, in vivo, 1.5 mg, t1/2, intraduodenal bolus, 1.5 mg/animal, 75 μL Capmul MCM L8, mean of 3 rats",24.9 min
same,half-life,"male, Sprague-Dawley, rat, in vivo, 1.5 mg, t1/2, intraduodenal bolus, 1.5 mg/animal, 75 μL Capmul MCM L8, rat 963",29.2 min
same,half-life,"male, Sprague-Dawley, rat, in vivo, 1.5 mg, t1/2, intraduodenal bolus, 1.5 mg/animal, 75 μL Capmul MCM L8, rat 964",21.9 min
same,half-life,"male, Sprague-Dawley, rat, in vivo, 1.5 mg, t1/2, intraduodenal bolus, 1.5 mg/animal, 75 μL Capmul MCM L8, rat 965",23.6 min
same,half-life,"male, Sprague-Dawley, rat, in vivo, 1.5 mg, t1/2, summary, intraduodenal, 1.5 mg/animal, 25 μL Capmul MCM L8",27.2 min
same,half-life,"male, Sprague-Dawley, rat, in vivo, 1.5 mg, t1/2, summary, intraduodenal, 1.5 mg/animal, 50 μL Capmul MCM L8",24.6 min
same,half-life,"male, Sprague-Dawley, rat, in vivo, 1.5 mg, t1/2, summary, intraduodenal, 1.5 mg/animal, 75 μL Capmul MCM L8",24.9 min
same,Tmax,"male, Sprague-Dawley, rat, in vivo, 1.5 mg, tmax, intraduodenal bolus, 1.5 mg/animal, 75 μL Capmul MCM L8, rat 964",15 min
same,concentration at 0.25 hr,"male, Sprague-Dawley, rat, in vivo, 1.5 mg/animal, Plasma concentration, ID bolus 1.5 mg/animal, 25 µL Capmul MCM L8, 0.25 hr, mean",1180 ng/mL
same,concentration at 0.5 hr,"male, Sprague-Dawley, rat, in vivo, 1.5 mg/animal, Plasma concentration, ID bolus 1.5 mg/animal, 25 µL Capmul MCM L8, 0.5 hr, individual rats",916 ng/mL
same,concentration at 0.5 hr,"male, Sprague-Dawley, rat, in vivo, 1.5 mg/animal, Plasma concentration, ID bolus 1.5 mg/animal, 25 µL Capmul MCM L8, 0.5 hr, mean",838 ng/mL
same,concentration at 0.83 hr,"male, Sprague-Dawley, rat, in vivo, 1.5 mg/animal, Plasma concentration, ID bolus 1.5 mg/animal, 25 µL Capmul MCM L8, 0.83 hr, mean",1650 ng/mL
same,concentration at 1 hr,"male, Sprague-Dawley, rat, in vivo, 1.5 mg/animal, Plasma concentration, ID bolus 1.5 mg/animal, 25 µL Capmul MCM L8, 1.0 hr, individual rats",387 ng/mL
same,concentration at 1 hr,"male, Sprague-Dawley, rat, in vivo, 1.5 mg/animal, Plasma concentration, ID bolus 1.5 mg/animal, 25 µL Capmul MCM L8, 1.0 hr, mean",341 ng/mL
same,concentration at 1.5 hr,"male, Sprague-Dawley, rat, in vivo, 1.5 mg/animal, Plasma concentration, ID bolus 1.5 mg/animal, 25 µL Capmul MCM L8, 1.5 hr, individual rats",145 ng/mL
same,concentration at 1.5 hr,"male, Sprague-Dawley, rat, in vivo, 1.5 mg/animal, Plasma concentration, ID bolus 1.5 mg/animal, 25 µL Capmul MCM L8, 1.5 hr, mean",136 ng/mL
same,concentration at 2 hr,"male, Sprague-Dawley, rat, in vivo, 1.5 mg/animal, Plasma concentration, ID bolus 1.5 mg/animal, 25 µL Capmul MCM L8, 2.0 hr, individual rats",70.7 ng/mL
same,concentration at 2 hr,"male, Sprague-Dawley, rat, in vivo, 1.5 mg/animal, Plasma concentration, ID bolus 1.5 mg/animal, 25 µL Capmul MCM L8, 2.0 hr, mean",71.9 ng/mL
same,concentration at 0.25 hr,"male, Sprague-Dawley, rat, in vivo, 1.5 mg/animal, Plasma concentration, ID bolus 1.5 mg/animal, 50 µL Capmul MCM L8, Ex.7, 0.25 hr, individual rats",2060 ng/mL
same,concentration at 0.25 hr,"male, Sprague-Dawley, rat, in vivo, 1.5 mg/animal, Plasma concentration, ID bolus 1.5 mg/animal, 50 µL Capmul MCM L8, Ex.7, 0.25 hr, mean",1580 ng/mL
same,concentration at 0.5 hr,"male, Sprague-Dawley, rat, in vivo, 1.5 mg/animal, Plasma concentration, ID bolus 1.5 mg/animal, 50 µL Capmul MCM L8, Ex.7, 0.5 hr, individual rats",1250 ng/mL
same,concentration at 0.5 hr,"male, Sprague-Dawley, rat, in vivo, 1.5 mg/animal, Plasma concentration, ID bolus 1.5 mg/animal, 50 µL Capmul MCM L8, Ex.7, 0.5 hr, mean",1000 ng/mL
